Among the data in patent US20220389009A1, “SUBSTITUTED 1,6-NAPHTHYRIDINE INHIBITORS OF CDK5” (Goldfinch Bio, Inc., priority 2019, published 2022) are IC50 and CDK5/CDK2 specificity values, retold here.

pIC50: −log10 of the molar value. Where only a bound is given, the exact number is not on record here.

The target in experiment [1] is CDK2/CycA2 (Homo sapiens, UniProt P24941). Nature of the experiment: CDK2 mobility shift assay (enzymatic activity of CDK2/CycA2). In kind it is biochemical. The following applies: 1.25 nM CDK2/CycA2, 37 μM ATP, FL Peptide 18, 120 min at room temperature; read-out: CDK2 IC50. The procedure, abridged:
(§1)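 Carna CDK5/p25 (0.154 nM) or CDK2/CycA2 (1.25 nM) was preincubated 30 min with compound, ATP ([…] for CDK5; 37 μM for CDK2) and 10 mM MgCl2 in HEPES pH 7.5. The reaction was started with 1.5 μM FL peptide (29 for CDK5, 18 for CDK2) and run 60 min (CDK5) or 120 min (CDK2) at room temperature. Product was read by mobility shift, with IC50 from a 4-parameter fit.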

Experiment [2] concerns the target CDK5/p25 (Homo sapiens, UniProt Q00535). Put plainly: CDK5 mobility shift assay (enzymatic activity of CDK5/p25). Format: biochemical. As to conditions: for pIC50: 0.154 nM CDK5/p25, FL peptide 29, 60 min at room temperature, read-out: CDK5 IC50; for CDK5/CDK2 specificity: fold more active against CDK5 than CDK2. Summed up:
as §1

Sequence of CDK5/p25 (Q00535 whole entry): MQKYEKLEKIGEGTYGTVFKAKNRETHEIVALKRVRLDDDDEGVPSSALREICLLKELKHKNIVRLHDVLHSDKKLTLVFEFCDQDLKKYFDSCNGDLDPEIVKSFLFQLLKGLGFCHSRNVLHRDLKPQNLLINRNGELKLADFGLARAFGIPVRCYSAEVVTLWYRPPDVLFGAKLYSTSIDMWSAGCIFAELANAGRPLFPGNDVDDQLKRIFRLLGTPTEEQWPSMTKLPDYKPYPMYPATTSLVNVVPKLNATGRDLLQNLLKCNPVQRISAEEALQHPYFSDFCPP
Sequence of CDK5/p25 (Q15078 99-307 partner limits assumed): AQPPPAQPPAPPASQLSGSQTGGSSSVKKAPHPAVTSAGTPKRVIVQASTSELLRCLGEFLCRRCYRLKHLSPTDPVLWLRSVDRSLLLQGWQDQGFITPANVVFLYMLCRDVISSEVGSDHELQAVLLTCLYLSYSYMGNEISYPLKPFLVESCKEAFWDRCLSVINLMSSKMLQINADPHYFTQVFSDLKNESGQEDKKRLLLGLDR

Turning to `CN1CCC(NS(=O)(=O)c2ccc3cnc(Nc4ccc(-n5ccc(CO)n5)cc4F)cc3n2)CC1` [Compound 203, 7-([2-fluoro-4-[3-(hydroxymethyl)pyrazol-1-yl]phenyl]amino)-N-(1-methylpiperidin-4-yl)-1,6-naphthyridine-2-sulfonamide], the pIC50 (in general, −log10 of the IC50, conventionally taken in molar units) in experiment [1] is under 6.00. Also, in experiment [2], the pIC50 was 6.00 to 7.00 and the CDK5/CDK2 specificity result was “+ (10-fold or less more active against CDK5 than CDK2)”.

Take `CN1CCC([C@@](C)(O)c2ccc3cnc(Nc4ccccc4)cc3n2)CC1` [Compound 345, (1R)-1-(1-methylpiperidin-4-yl)-1-[7-(phenylamino)-1,6-naphthyridin-2-yl]ethanol]: the pIC50 in experiment [1] is 7.00 to 8.00; in experiment [2] it was over 8.00. Also, in experiment [2], the CDK5/CDK2 specificity result is “++ (greater than 10-fold and less than or equal to 100-fold more active against CDK5 than CDK2)”.

Consider `[O-][S@+](c1ccc2cnc(Nc3ccc(-n4cccn4)cc3F)cc2n1)C1CCNCC1` [Compound 117, N-[2-fluoro-4-(pyrazol-1-yl)phenyl]-2-[(S)-piperidine-4-sulfinyl]-1,6-naphthyridin-7-amine], for which the values for the pIC50 in experiment [1] and in experiment [2] were under 6.00 and 6.00 to 7.00, respectively. Further, the CDK5/CDK2 specificity entry in experiment [2] is “+ (10-fold or less more active against CDK5 than CDK2)”.

Consider `CN1CCC(C2(c3ccc4cnc(Nc5ccc(-n6ccc(CO)n6)cc5F)cc4n3)CC2)CC1` [Compound 312, [1-[3-fluoro-4-([2-[1-(1-methylpiperidin-4-yl)cyclopropyl]-1,6-naphthyridin-7-yl]amino)phenyl]pyrazol-3-yl]methanol], for which the negative logarithm of the IC50 (pIC50) in experiment [1] is under 6.00; in experiment [2], 7.00 to 8.00. Moreover, the CDK5/CDK2 specificity result in experiment [2] is “++ (greater than 10-fold and less than or equal to 100-fold more active against CDK5 than CDK2)”.

On to `COc1ccc(-c2ccc(Nc3cc4nc(C(C)C5CCN(C)CC5)ccc4cn3)c(F)c2)cc1` (stereo not drawn) [Compound 322], for which the negative logarithm of the IC50 (pIC50) in experiment [1] is 6.00 to 7.00; in experiment [2], over 8.00. In experiment [2], the CDK5/CDK2 specificity entry is “+++ (greater than 100-fold more active against CDK5 than CDK2)”.

On to `OCCN1CCC(Sc2ccc3cnc(Nc4ccc(-n5ccc(CO)n5)cc4F)cc3n2)CC1` [Compound 138, 2-(4-[[7-([2-fluoro-4-[3-(hydroxymethyl)pyrazol-1-yl]phenyl]amino)-1,6-naphthyridin-2-yl]sulfanyl]piperidin-1-yl)ethanol], for which the pIC50 in experiment [1] is 7.00 to 8.00. Besides, in experiment [2], the pIC50 is over 8.00; the CDK5/CDK2 specificity entry was “++ (greater than 10-fold and less than or equal to 100-fold more active against CDK5 than CDK2)”.

As for `CN1CCC(C(C)(O)c2ccc3cnc(Nc4ccc(-c5cccc(C#N)c5)cc4F)cc3n2)CC1` (stereo not drawn) [Compound 337], the negative-log IC50 (pIC50) in experiment [1] was under 6.00. Also, in experiment [2], the pIC50 was 6.00 to 7.00; the CDK5/CDK2 specificity entry is “++ (greater than 10-fold and less than or equal to 100-fold more active against CDK5 than CDK2)”.

In the case of `CNC(=O)c1ccn(-c2ccc(Nc3cc4nc(S(=O)(=O)C5CCN(CC6COC6)CC5)ccc4cn3)c(F)c2)n1` [Compound 334], in experiment [1], the pIC50 is 6.00 to 7.00. Also, in experiment [2], the negative-log IC50 (pIC50) is over 8.00; the CDK5/CDK2 specificity result is “++ (greater than 10-fold and less than or equal to 100-fold more active against CDK5 than CDK2)”.

With `CN1CCC(C(O)c2ccc3cnc(Nc4ccc(-n5ccc(C(=O)O)n5)cc4F)cc3n2)CC1` (stereo not drawn) [Compound 292, 1-[3-fluoro-4-([2-[hydroxy(1-methylpiperidin-4-yl)methyl]-1,6-naphthyridin-7-yl]amino)phenyl]pyrazole-3-carboxylic acid], the negative-log IC50 (pIC50) in experiment [1] was 6.00 to 7.00. In experiment [2], the negative logarithm of the IC50 (pIC50) was over 8.00; the CDK5/CDK2 specificity entry was “++ (greater than 10-fold and less than or equal to 100-fold more active against CDK5 than CDK2)”.

For the compound `OCc1ccn(-c2ccc(Nc3cc4nc(SC5CCNCC5)ccc4cn3)c(F)c2)n1` [Compound 108, [1-(3-fluoro-4-[[2-(piperidin-4-ylsulfanyl)-1,6-naphthyridin-7-yl]amino]phenyl)pyrazol-3-yl]methanol], in experiment [1], the pIC50 was 7.00 to 8.00. In experiment [2], the pIC50 is over 8.00; the CDK5/CDK2 specificity result is “++ (greater than 10-fold and less than or equal to 100-fold more active against CDK5 than CDK2)”.

Turning to `CN1CCC(C(C)(O)c2ccc3cnc(Nc4cccc(N5CCOCC5)c4)cc3n2)CC1` (stereo not drawn) [Compound 348], in experiment [1], the negative logarithm of the IC50 (pIC50) is 6.00 to 7.00. For the same compound, in experiment [2], the pIC50 was over 8.00; the CDK5/CDK2 specificity entry was “++ (greater than 10-fold and less than or equal to 100-fold more active against CDK5 than CDK2)”.

For the compound `CN1CCC(S(=O)(=O)c2ccc3cnc(Nc4ccc(-n5ccc(C(=O)O)n5)cc4F)cc3n2)CC1` [Compound 198, 1-(3-fluoro-4-((2-((1-methylpiperidin-4-yl)sulfonyl)-1,6-naphthyridin-7-yl)amino)phenyl)-1H-pyrazole-3-carboxylic acid], the negative-log IC50 (pIC50) in experiment [1] is 6.00 to 7.00; in experiment [2], over 8.00. Moreover, the CDK5/CDK2 specificity result in experiment [2] is given as “+++ (greater than 100-fold more active against CDK5 than CDK2)”.

With `CN1CCC(S(=O)(=O)c2ccc3cnc(Nc4ccc(-c5ncon5)cc4F)cc3n2)CC1` [Compound 376], the negative logarithm of the IC50 (pIC50) in experiment [1] was 6.00 to 7.00. Further, in experiment [2], the pIC50 was 6.00 to 7.00 and the CDK5/CDK2 specificity entry is listed as “+ (10-fold or less more active against CDK5 than CDK2)”.

`CN1CCC(C(O)(c2ccc3cnc(Nc4ccc(-n5cccn5)cc4F)cc3n2)C(F)(F)F)CC1` (single isomer, unassigned) [Compound 343, 2,2,2-trifluoro-1-(7-((2-fluoro-4-(1H-pyrazol-1-yl)phenyl)amino)-1,6-naphthyridin-2-yl)-1-(1-methylpiperidin-4-yl)ethan-1-ol]: the pIC50 in experiment [1] is under 6.00. For the same compound, in experiment [2], the negative logarithm of the IC50 (pIC50) was 6.00 to 7.00; the CDK5/CDK2 specificity entry was “++ (greater than 10-fold and less than or equal to 100-fold more active against CDK5 than CDK2)”.

Take `CN1CCN(S(=O)(=O)c2ccc3cnc(Nc4ccc(-n5ccc(CO)n5)cc4F)cc3n2)CC1` [Compound 245, [1-(3-fluoro-4-[[2-(4-methylpiperazin-1-ylsulfonyl)-1,6-naphthyridin-7-yl]amino]phenyl)pyrazol-3-yl]methanol]: the negative logarithm of the IC50 (pIC50) in experiment [1] was 6.00 to 7.00. Further, in experiment [2], the pIC50 is 6.00 to 7.00 and the CDK5/CDK2 specificity entry is reported as “+ (10-fold or less more active against CDK5 than CDK2)”.

For the compound `CC(O)(c1ccc2cnc(Nc3ccc(-n4cccn4)cc3F)cc2n1)C1CCNCC1` (stereo not drawn) [Compound 196, 1-(7-[[2-fluoro-4-(pyrazol-1-yl)phenyl]amino]-1,6-naphthyridin-2-yl)-1-(piperidin-4-yl)ethanol], in experiment [1], the pIC50 is 6.00 to 7.00. In experiment [2], the pIC50 was over 8.00; the CDK5/CDK2 specificity entry is “++ (greater than 10-fold and less than or equal to 100-fold more active against CDK5 than CDK2)”.

As to `CN1CCC(S(=O)(=O)c2ccc3cnc(Nc4ccc5c(c4)C(=O)NCC5)cc3n2)CC1` [Compound 278], in experiment [1], the pIC50 is 6.00 to 7.00. In experiment [2], the negative logarithm of the IC50 (pIC50) is over 8.00; the CDK5/CDK2 specificity entry is “++ (greater than 10-fold and less than or equal to 100-fold more active against CDK5 than CDK2)”.

In the case of `CN1CCC(C(C)(O)c2ccc3cnc(Nc4ccc(-c5cccnc5)cc4F)cc3n2)CC1` (stereo not drawn) [Compound 329], the pIC50 in experiment [1] was 7.00 to 8.00. In addition, in experiment [2], the pIC50 is over 8.00; the CDK5/CDK2 specificity result was “++ (greater than 10-fold and less than or equal to 100-fold more active against CDK5 than CDK2)”.

Consider `CC(C)c1ccc(Nc2cc3nc(S(=O)(=O)C4CCN(C)CC4)ccc3cn2)cc1` [Compound 298], for which, in experiment [1], the pIC50 is 7.00 to 8.00. In addition, in experiment [2], the negative-log IC50 (pIC50) is over 8.00 and the CDK5/CDK2 specificity result is “+++ (greater than 100-fold more active against CDK5 than CDK2)”.

As for `CCC(O)(c1ccc2cnc(Nc3ccc(-n4cccn4)cc3F)cc2n1)C1CCN(C)CC1` (stereo not drawn) [Compound 392], in experiment [1], the negative logarithm of the IC50 (pIC50) is 6.00 to 7.00. In experiment [2], the negative-log IC50 (pIC50) was 7.00 to 8.00; the CDK5/CDK2 specificity result is “++ (greater than 10-fold and less than or equal to 100-fold more active against CDK5 than CDK2)”.

Regarding `CN1CCC(C(O)c2ccc3cnc(Nc4ccc(-n5ccc(CO)n5)cc4F)cc3n2)CC1` (single isomer, unassigned) [Compound 247, [7-([2-fluoro-4-[3-(hydroxymethyl)pyrazol-1-yl]phenyl]amino)-1,6-naphthyridin-2-yl](1-methylpiperidin-4-yl)methanol], the pIC50 in experiment [1] is under 6.00. In experiment [2], the negative logarithm of the IC50 (pIC50) was 7.00 to 8.00; the CDK5/CDK2 specificity entry was “++ (greater than 10-fold and less than or equal to 100-fold more active against CDK5 than CDK2)”.

Consider `Cc1ccccc1Nc1cc2nc(S(=O)(=O)C3CCN(C)CC3)ccc2cn1` [Compound 297], for which the pIC50 in experiment [1] was 6.00 to 7.00. Also, in experiment [2], the negative-log IC50 (pIC50) is over 8.00 and the CDK5/CDK2 specificity entry is reported as “+++ (greater than 100-fold more active against CDK5 than CDK2)”.

As to `CN1CCC(S(=O)(=O)c2ccc3cnc(Nc4ccccc4F)cc3n2)CC1` [Compound 299], in experiment [1], the negative-log IC50 (pIC50) was 6.00 to 7.00. In addition, in experiment [2], the negative logarithm of the IC50 (pIC50) was over 8.00; the CDK5/CDK2 specificity entry is “++ (greater than 10-fold and less than or equal to 100-fold more active against CDK5 than CDK2)”.

`CN1CCC(/C(=N\O)c2ccc3cnc(Nc4ccc(-n5cccn5)cc4F)cc3n2)CC1` [Compound 375]: in experiment [1], the negative logarithm of the IC50 (pIC50) was 7.00 to 8.00. For the same compound, in experiment [2], the pIC50 is over 8.00; the CDK5/CDK2 specificity entry was “++ (greater than 10-fold and less than or equal to 100-fold more active against CDK5 than CDK2)”.

Take `CC(c1ccc2cnc(Nc3ccc(-n4ccc(CO)n4)cc3F)cc2n1)C1CCN(C)CC1` (single isomer, unassigned) [Compound 188, [1-[3-fluoro-4-([2-[1-(1-methylpiperidin-4-yl)ethyl]-1,6-naphthyridin-7-yl]amino)phenyl]pyrazol-3-yl]methanol]: the pIC50 in experiment [1] was 6.00 to 7.00; in experiment [2] it was over 8.00. For the same compound, the CDK5/CDK2 specificity result in experiment [2] is “+++ (greater than 100-fold more active against CDK5 than CDK2)”.
